Assay results taken from US20190364899A1, “MICROBIOCIDAL OXADIAZOLE DERIVATIVES” (SYNGENTA PARTICIPATIONS AG, priority 2015, published 2019).
Read-outs that look alike come from different tables or passages of the source.

How the values were obtained:
[1] = system: Puccinia recondita f, Sp. Tritici; test: Fungicidal activity against Puccinia recondita f. sp. tritici / wheat / leaf disc preventative (brown rust); assay type: in vivo; settings: foliar, 200 ppm in the applied formulation, wheat leaf segments cv. Kanzler, inoculated 1 day after application, compared to untreated, read-out: disease control
Protocol: (§1) General examples of leaf disk tests in well plates: Leaf disks or leaf segments of various plant species are cut from plants grown in a greenhouse. The cut leaf disks or segments are placed in multiwell plates (24-well format) onto water agar. The leaf disks are sprayed with a test solution before (preventative) or after (curative) inoculation. Compounds to be tested are prepared as DMSO solutions (max. 10 mg/ml) which are diluted to the appropriate concentration with 0.025% Tween20 just before spraying. The inoculated leaf disks or segments are incubated under defined conditions (temperature, relative humidity, light, etc.) according to the respective test system. A single evaluation of disease level is carried out 3 to 14 days after inoculation, depending on the pathosystem. Percent disease control relative to the untreated check leaf disks or segments is then calculated. General examples of liquid culture tests in well plates: Mycelia fragments or conidia suspensions of a fungus prepared either freshly from liquid cultures of the fungus or from cryogenic storage, are directly mixed into nutrient broth. DMSO solutions of the test compound (max. 10 mg/ml) are diluted with 0.025% Tween20 by a factor of 50 and 10 μl of this solution is pipetted into a microtiter plate (96-well format). The nutrient broth containing the fungal spores/mycelia fragments is then added to give an end concentration of the tested compound. The test plates are incubated in the dark at 24° C. and 96% relative humidity. The inhibition of fungal growth is determined photometrically after 2 to 7 days, depending on the pathosystem, and percent antifungal activity relative to the untreated check is calculated.
Example 1: Fungicidal Activity Against Puccinia recondita f, Sp. Tritici/Wheat/Leaf Disc Preventative (Brown Rust)
Wheat leaf segments cv. Kanzler were placed on agar in multiwell plates (24-well format) and sprayed with the formulated test compound diluted in water. The leaf disks were inoculated with a spore suspension of the fungus 1 day after application. The inoculated leaf segments were incubated at 19° C. and 75% relative humidity (rh) under a light regime of 12 hours light/12 hours darkness in a climate cabinet and the activity of a compound was assessed as percent disease control compared to untreated when an appropriate level of disease damage appears in untreated check leaf segments (7 to 9 days after application).
(§2) The following compounds at 200 ppm in the applied formulation give at least 80% disease control in this test when compared to untreated control leaf disks under the same conditions, which show extensive disease development.

[2] = system: Glomerella Lagenarium (Colletotrichum Lagenarium); test: Fungicidal activity against Glomerella lagenarium (Colletotrichum lagenarium) liquid culture / cucumber / preventative (anthracnose); assay type: cell-based; settings: Colletotrichum orbiculare, read-out: disease control
Protocol: as §1
Example 4: Fungicidal Activity Against Glomerella Lagenarium (Colletotrichum Lagenarium) Liquid Culture/Cucumber/Preventative (Anthracnose)
Conidia of the fungus from cryogenic storage are directly mixed into nutrient broth (PDB—potato dextrose broth). After placing a (DMSO) solution of test compound into a microtiter plate (96-well format), the nutrient broth containing the fungal spores is added. The test plates are incubated at 24° C. and the inhibition of growth is measured photometrically 3 to 4 days after application.
The following compounds at 20 ppm in the applied formulation give at least 80% disease control in this test when compared to untreated control under the same conditions, which show extensive disease development.

[3] = system: Phakopsora pachyrhizi; test: Fungicidal activity against Phakopsora pachyrhizi / soybean / leaf disc preventative (Asian soybean rust); assay type: in vivo; settings: foliar, 200 ppm in the applied formulation, soybean leaf disks, inoculated one day after application, compared to untreated, read-out: disease control
Protocol: as §1
Example 3: Fungicidal Activity Against Phakopsora pachyrhizi/Soybean/Leaf Disc Preventative (Asian Soybean Rust)
Soybean leaf disks are placed on water agar in multiwell plates (24-well format) and sprayed with the formulated test compound diluted in water. One day after application leaf discs are inoculated by spraying a spore suspension on the lower leaf surface. After an incubation period in a climate cabinet of 24-36 hours in darkness at 20° C. and 75% rh leaf disc are kept at 20° C. with 12 h light/day and 75% rh. The activity of a compound is assessed as percent disease control compared to untreated when an appropriate level of disease damage appears in untreated check leaf disks (12 to 14 days after application).
as §2

[4] = system: Puccinia Recondite f. Sp. Tritici; test: Fungicidal activity against Puccinia recondita f. sp. tritici / wheat / leaf disc curative (brown rust); assay type: in vivo; settings: foliar, 24 h, 200 ppm in the applied formulation, wheat leaf segments cv. Kanzler, applied 1 day after inoculation, compared to untreated, read-out: disease control
Protocol: as §1
Example 2: Fungicidal Activity Against Puccinia Recondite f. Sp. Tritici Wheat/Leaf Disc Curative (Brown Rust)
Wheat leaf segments cv. Kanzler are placed on agar in multiwell plates (24-well format). The leaf segments are then inoculated with a spore suspension of the fungus. Plates were stored in darkness at 19° C. and 75% relative humidity. The formulated test compound diluted in water was applied 1 day after inoculation. The leaf segments were incubated at 19° C. and 75% relative humidity under a light regime of 12 hours light/12 hours darkness in a climate cabinet and the activity of a compound was assessed as percent disease control compared to untreated when an appropriate level of disease damage appears in untreated check leaf segments (6 to 8 days after application).
as §2

[5] = 20 ppm in the applied formulation, liquid culture in PDB, growth inhibition measured photometrically 3 to 4 days after application, compared to untreated

Compound	pest or weed control at 200 ppm [1] [%]	inhibition of growth at 20 ppm [2, 5] [%]	pest or weed control at 200 ppm [3] [%]	pest or weed control at 200 ppm [4] [%]	inhibition of growth at 20 ppm [2] [%]
O=C(NCc1ccccc1)NCc1ccc(-c2noc(C(F)(F)F)n2)cc1 [Compound 2.8, 1-benzyl-3-[[4-[5-(trifluoromethyl)-1,2,4-oxadiazol-3-yl]phenyl]methyl]urea]	≥ 80	≥ 80	–	–	–
O=C(NCc1ccc(-c2noc(C(F)(F)F)n2)cc1)NC1CCCCC1 [Compound 2.6, 1-cyclohexyl-3-[[4-[5-(trifluoromethyl)-1,2,4-oxadiazol-3-yl]phenyl]methyl]urea]	–	–	≥ 80	–	–
O=C(NCc1ccc(-c2noc(C(F)(F)F)n2)cc1)NC1CCCC1 [Compound 2.10, 1-cyclopentyl-3-[[4-[5-(trifluoromethyl)-1,2,4-oxadiazol-3-yl]phenyl]methyl]urea]	≥ 80	≥ 80	–	–	–
CN(C(=O)NCc1ccc(-c2noc(C(F)(F)F)n2)cc1)C1CCC1 [Compound 2.26, 1-cyclobutyl-1-methyl-3-[[4-[5-(trifluoromethyl)-1,2,4-oxadiazol-3-yl]phenyl]methyl]urea]	≥ 80	≥ 80	≥ 80	≥ 80	–
COCC1(N(C)C(=O)NCc2ccc(-c3noc(C(F)(F)F)n3)cc2)CC1 [Compound 2.28, 1-[1-(methoxymethyl)cyclopropyl]-1-methyl-3-[[4-[5-(trifluoromethyl)-1,2,4-oxadiazol-3-yl]phenyl]methyl]urea]	≥ 80	≥ 80	≥ 80	≥ 80	–
O=C(NCc1ccc(-c2noc(C(F)(F)F)n2)cc1)N1CCCC1 [Compound 3.4, N-[[4-[5-(trifluoromethyl)-l,2,4-oxadiazol-3-yl]phenyl]methyl] pyrrolidine-1-carboxamide]	≥ 80	≥ 80	≥ 80	≥ 80	–
O=C(NCc1ccc(-c2noc(C(F)(F)F)n2)cn1)Nc1ccc(Cl)cc1 [Compound 2.15, 1-(4-chlorophenyl)-3-[[5-[5-(trifluoromethyl)-1,2,4-oxadiazol-3-yl]-2-pyridyl]methyl]urea]	≥ 80	≥ 80	–	–	–
O=C(NCc1ccc(-c2noc(C(F)(F)F)n2)cc1)NC1CCC1 [Compound 2.9, 1-cyclobutyl-3-[[4-[5-(trifluoromethyl)-1,2,4-oxadiazol-3-yl]phenyl]methyl]urea]	≥ 80	≥ 80	–	–	–
O=C(NCc1ccc(-c2noc(C(F)(F)F)n2)cn1)Oc1ccccc1 [Compound 1.5, phenyl N-[[5-[5-(trifluoromethyl)-1,2,4-oxadiazol-3-yl)-2-pyridyl]methyl] carbamate]	–	–	–	–	≥ 80
N#CC1(NC(=O)NCc2ccc(-c3noc(C(F)(F)F)n3)cc2)CC1 [Compound 2.24, 1-(1-cyanocyclopropyl)-3-[[4-[5-(trifluoromethyl)-1,2,4-oxadiazol-3-yl]phenyl]methyl]urea]	≥ 80	–	≥ 80	≥ 80	–
O=C(NCc1ccc(-c2noc(C(F)(F)F)n2)cn1)OCc1ccccc1 [Compound 1.6, benzyl N-[[5-[5-(trifluoromethyl)-l,2,4-oxadiazol-3-yl]-2-pyridyl]methyl] carbamate]	≥ 80	≥ 80	–	≥ 80	–
O=C(NCc1ccc(-c2noc(C(F)(F)F)n2)cc1)Nc1ccccc1 [Compound 2.7, 1-phenyl-3-[[4-[5-(trifluoromethyl)-1,2,4-oxadiazol-3-yl]phenyl]methyl]urea]	≥ 80	≥ 80	≥ 80	–	–
O=C(NCc1ccc(-c2noc(C(F)(F)F)n2)cc1)NC1COC1 [Compound 2.23, 1-(oxetan-3-yl)-3-[[4-[5-(trifluoromethyl)-1,2,4-oxadiazol-3-yl]phenyl]methyl]urea]	≥ 80	–	≥ 80	–	–
CCN(CC1CC1)C(=O)NCc1ccc(-c2noc(C(F)(F)F)n2)cc1 [Compound 2.29, 1-(cyclopropylmethyl)-l-ethyl-3-[[4-[5-(trifluoromethyl)-1,2,4-oxadiazol-3-yl]phenyl]methyl]urea]	≥ 80	≥ 80	≥ 80	–	–
O=C(NCc1ccccc1)NCc1ccc(-c2noc(C(F)(F)F)n2)cn1 [Compound 2.12, 1-benzyl-3-[[5-[5-(trifluoromethyl)-1,2,4-oxadiazol-3-yl]-2-pyridyl]methyl]urea]	≥ 80	≥ 80	–	–	–
O=C(NCc1ccc(-c2noc(C(F)(F)F)n2)cn1)Nc1ccccc1 [Compound 2.5, 1-phenyl-3-[[5-[5-(trifluoromethyl)-1,2,4-oxadiazol-3-yl]-2-pyridyl]methyl]urea]	≥ 80	≥ 80	–	–	–
O=C(NCc1ccc(-c2noc(C(F)(F)F)n2)cc1)NCc1ccco1 [Compound 2.11, 1-(2-furylmethyl)-3-[[4-[5-(trifluoromethyl)-l,2,4-oxadiazol-3-yl]phenyl]methyl]urea]	–	≥ 80	–	–	–
O=C(NCc1ccc(-c2noc(C(F)(F)F)n2)cn1)NCc1ccco1 [Compound 2.16]	≥ 80	≥ 80	–	–	–
O=C(NCc1ccc(-c2noc(C(F)(F)F)n2)cn1)Nc1ccccc1Cl [Compound 2.19, 1-(2-chlorophenyl)-3-[[5-[5-(trifluoromethyl)-1,2,4-oxadiazol-3-yl]-2-pyridyl]methyl]urea]	≥ 80	≥ 80	≥ 80	–	–
O=C(NCc1ccc(-c2noc(C(F)(F)F)n2)cn1)Nc1ccccc1F [Compound 2.18, 1-(2-fluorophenyl)-3-[[5-[5-(trifluoromethyl)-1,2,4-oxadiazol-3-yl]-2-pyridyl]methyl]urea]	≥ 80	≥ 80	–	–	–
CC1(NC(=O)NCc2ccc(-c3noc(C(F)(F)F)n3)cc2)CC1 [Compound 2.25, 1-(1-methylcyclopropyl)-3-[[4-[5-(trifluoromethyl)-1,2,4-oxadiazol-3-yl]phenyl]methyl]urea]	–	–	≥ 80	–	–
O=C(NCc1ccc(-c2noc(C(F)(F)F)n2)cn1)Nc1ccc(F)cc1 [Compound 2.13, 1-(4-fluorophenyl)-3-[[5-[5-(trifluoromethyl)-1,2,4-oxadiazol-3-yl]-2-pyridyl]methyl]urea]	≥ 80	–	–	–	–
O=C(NCc1ccc(-c2noc(C(F)(F)F)n2)cc1)OCc1ccccc1 [Compound 1.4, benzyl N-[[4-[5-(trifluoromethyl)-1,2,4-oxadiazol-3-yl]phenyl]methyl] carbamate]	≥ 80	≥ 80	–	–	–
